The values below come from patent publication US20020169205A1, “Implantation rates after in vitro fertilization, and treatment of infertility and early pregnancy loss with a nitric oxide donor or substrate alone or in combination with progesterone, and a method for contraception with nitric oxide inhibitors in combination with antiprogestins or other agents” (priority 1998, published 2002).

The subject of one test is uterine blood flow. Particulars: low dose aspirin, patients with impeded blood flow; cited from earlier work.
The subject of a further test is implantation. In words: Other studies: L-NAME effects on implantation combined with low-dose onapristone. The format is in vivo. Particulars: onapristone low-dose 0.1-0.3 mg/animal/day together with L-NAME.
The subject of another test is implantation in rats. In words: Effects of L-NAME on implantation in pregnant rats (FIG. 1 and FIG. 2). It is filed as in vivo. Here is the method: The animals were treated with 25 and 50 mg/animal/day L-NAME administered via continuous s.c. infusion from day 1 post coitum (p.c.) until day 7 p.c The autopsy was performed on day 12 p.c.
The animals were treated with 25 and 50 mg/animal/day L-NAME administered via continuous s.c. infusion on day 5-7 (p.c.). The autopsy was performed on either day 9 p.c. or day 12 p.c.
In the experiments whose results are shown in FIG. 1, pregnant rats (n=6/group) were treated with 25 and 50 mg/animal/day L-NAME from day 1 p.c. until day 7 p.c., i.e. during the period of pre-implantation and early implantation (in rats implantation takes place on day 5 p.c. ). The control animals were treated with the vehicle. During autopsy (days 9 and 12 p.c.) the implantation sites were assessed macroscopically, their diameter was measured, and the weights of isolated implantation sites (embryonic and placental tissues) were recorded. FIG. 2 presents results from a second study In pregnant rats in which L-NAME (25 and 50 mg/anilal/day) treatment was performed on days 5-7 p.c., i.e. shortly after nidation had taken place. The autopsy was performed on day 12 p.c. Implantation showing haemorrhagic changes were defined as pathological implantation sites.

Test [1] relates to uterine strips from rats at mid to near term gestation. Particulars: cited from earlier work.
Where [2] appears, read: 25 and 50 mg/animal/day s.c. infusion, autopsy day 9 or 12 p.c.

Turning to `CC(=O)Oc1ccccc1C(=O)O` [aspirin], the “effect on uterine blood flow” value in the test on uterine blood flow is “only marginal”.

Take `CN(C)c1ccc([C@H]2C[C@]3(C)[C@@H](CC[C@]3(O)CCCO)[C@@H]3CCC4=CC(=O)CCC4=C32)cc1` [onapristone]: in the test on implantation, the “L-NAME-induced effects on implantation with added antiprogestin” value is given as “enhanced”.

Consider `COC(=O)[C@@H](N)CCCNC(=N)N[N+](=O)[O-]` [L-NAME, NG-nitro-L-arginine methyl ester], for which the effect on implantation entry in the test on implantation in rats (25 and 50 mg/animal/day continuous s.c. infusion, day 1-7 p.c. or days 5-7 p.c.) is recorded as “profound effect on implantation”. Besides, in the test with implantation in rats (setting [2]), the “size of the implantation sites” value was “dose-dependent inhibition” and the “weight of the implantation sites” value is on record as “dose-dependent inhibition”. Besides, the “pathological changes in the implantation sites” value in the test with implantation in rats (25 and 50 mg/animal/day s.c. infusion, haemorrhagic changes defined as pathological) is “induced pathological changes in the implantation sites (mainly haemorrhages)”.

For `N=C(N)NCCC[C@H](N)C(=O)O` [L-arginine], in test [1], the “relaxation of spontaneous activity of uterine strips” value is “rapid and substantial relaxation”.
